The results in this text go back to patent US11591336B2 (Relay Therapeutics, Inc., priority 2017, dated 2023).

For the test, the target named is SHP2 (Homo sapiens (Human), UniProt Q06124). Nature of the test: SHP2 Allosteric Inhibition Assay (DiFMUP prompt fluorescence). The settings on record: 0.25 nM SHP2 activated with 0.5 μM peptide IRS1_pY1172(dPEG8)pY1222; substrate DiFMUP 100 μM; 25° C. It counts as biochemical.

pIC50: −log10 of the molar value. Where a name gives a salt, the structure may show the parent alone. Some results are limits rather than exact numbers.

Chain of SHP2 (Q06124 whole entry): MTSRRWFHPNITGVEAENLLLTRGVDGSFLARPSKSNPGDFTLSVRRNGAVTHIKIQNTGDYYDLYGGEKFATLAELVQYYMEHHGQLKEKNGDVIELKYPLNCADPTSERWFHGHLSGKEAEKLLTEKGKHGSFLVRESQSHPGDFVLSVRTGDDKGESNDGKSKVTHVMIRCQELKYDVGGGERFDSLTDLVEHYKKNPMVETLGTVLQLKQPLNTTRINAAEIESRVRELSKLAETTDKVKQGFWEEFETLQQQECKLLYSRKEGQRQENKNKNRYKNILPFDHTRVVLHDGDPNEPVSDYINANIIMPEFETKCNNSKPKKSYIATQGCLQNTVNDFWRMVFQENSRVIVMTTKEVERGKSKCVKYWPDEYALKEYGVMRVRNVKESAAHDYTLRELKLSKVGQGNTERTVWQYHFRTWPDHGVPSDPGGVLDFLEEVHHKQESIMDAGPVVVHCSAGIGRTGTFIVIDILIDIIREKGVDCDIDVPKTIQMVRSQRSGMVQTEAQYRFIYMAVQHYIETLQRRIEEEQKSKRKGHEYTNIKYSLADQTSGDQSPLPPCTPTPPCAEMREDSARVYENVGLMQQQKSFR

Turning to `C[C@@H]1OCC2(CCN(c3cnc4c(N5CCCc6c5cccc6S(=O)(=O)C5CC5)n[nH]c4n3)CC2)[C@@H]1N` [Compound 457], the pIC50 (as a rule, the negative decadic logarithm of the IC50, by convention in mol/L) was over 6.00.

For the compound `C[C@@H]1OCC2(CCN(c3cnc4c(N5CCCc6c(CN7CCOCC7)cccc65)n[nH]c4n3)CC2)[C@@H]1N` [Compound 458], the pIC50 was over 6.00.

Turning to `C[C@@H]1OCC2(CCN(c3cnc4c(N5CCCc6c(CN7CCOC7=O)cccc65)n[nH]c4n3)CC2)[C@@H]1N` [Compound 459], the pIC50 was over 6.00.

With `COCCS(=O)(=O)c1cccc2c1CCCN2c1n[nH]c2nc(N3CCC4(CC3)CO[C@@H](C)[C@H]4N)cnc12` [Compound 460], the negative logarithm of the IC50 (pIC50) is over 6.00.

For `COC(=O)Cc1cccc2c1CCCN2c1n[nH]c2nc(N3CCC4(CC3)CO[C@@H](C)[C@H]4N)cnc12` [Compound 461], the pIC50 was over 6.00.

In the case of `C=C(C)c1cccc2c1CCCN2c1n[nH]c2nc(N3CCC4(CC3)CO[C@@H](C)[C@H]4N)cnc12` [Compound 462], the pIC50 is over 6.00.

`C[C@@H]1OCC2(CCN(c3cnc4c(N5CCCc6c5cccc6S(=O)(=O)C5COC5)n[nH]c4n3)CC2)[C@@H]1N` [Compound 464]: the pIC50 was over 6.00.

On to `C[C@@H]1OCC2(CCN(c3cnc4c(N5CCCc6c5cccc6S(=O)(=O)c5cnn(C)c5)n[nH]c4n3)CC2)[C@@H]1N` [Compound 465], for which the pIC50 was over 6.00.

As for `CC(=O)N(C)Cc1cccc2c1CCCN2c1n[nH]c2nc(N3CCC4(CC3)CO[C@@H](C)[C@H]4N)cnc12` [Compound 466], the pIC50 is over 6.00.

Take `N[C@@H]1C[C@H](O)CC12CCN(c1cnc3c(N4CCCc5ncccc54)n[nH]c3n1)CC2` [Compound 467, (2R,4R)-4-amino-8-[3-(1,2,3,4-tetrahydro-1,5-naphthyridin-1-yl)-1H-pyrazolo[3,4-b]pyrazin-6-yl]-8-azaspiro[4.5]decan-2-ol]: the pIC50 was over 6.00.

As for `CO[C@H]1C[C@@H](N2CCN(c3n[nH]c4nc(N5CCC6(CC5)CO[C@@H](C)[C@H]6N)cnc34)c3ccc(C#N)cc32)C1` [Compound 469], the pIC50 was over 6.00.

Consider `CO[C@H]1C[C@H](N2CCN(c3n[nH]c4nc(N5CCC6(CC5)CO[C@@H](C)[C@H]6N)cnc34)c3ccc(C#N)cc32)C1` [Compound 470], for which the negative logarithm of the IC50 (pIC50) was over 6.00.

For `CC(=O)N1CC(N2CCN(c3n[nH]c4nc(N5CCC6(CC5)CO[C@@H](C)[C@H]6N)cnc34)c3ccc(C#N)cc32)C1` [Compound 471], the negative logarithm of the IC50 (pIC50) is over 6.00.

In turn, `CC1(N)CCN(c2cnc3c(NCc4ccccc4)n[nH]c3n2)CC1` [Compound 473, 6-(4-amino-4-methyl-1-piperidyl)-N-benzyl-1H-pyrazolo[3,4-b]pyrazin-3-amine] showed a negative logarithm of the IC50 (pIC50) of 5.00 to 6.00.

The compound `CNCCN(C)c1n[nH]c2nc(N3CCC(C)(CN)CC3)cnc12` [Compound 474] had a pIC50 of at most 5.00.

The compound `CC1(N)CCN(c2cnc3c(Sc4ccc[nH]c4=O)n[nH]c3n2)CC1` [Compound 475, 3-((6-(4-amino-4-methylpiperidin-1-yl)-1H-pyrazolo[3,4-b]pyrazin-3-yl)thio)pyridin-2(1H)-one] showed a pIC50 of 5.00 to 6.00.

In turn, `CC1(N)CCN(c2cnc3c(Sc4cc[nH]c(=O)c4Cl)n[nH]c3n2)CC1` [Compound 477, 4-((6-(4-amino-4-methylpiperidin-1-yl)-1H-pyrazolo[3,4-b]pyrazin-3-yl)thio)-3-chloropyridin-2(1H)-one] had a pIC50 of over 6.00.

`COc1nccc(Sc2n[nH]c3nc(N4CCC(C)(N)CC4)cnc23)c1Cl` [Compound 479, 1-(3-((3-chloro-2-methoxypyridin-4-yl)thio)-1H-pyrazolo[3,4-b]pyrazin-6-yl)-4-methylpiperidin-4-amine] gave a pIC50 of over 6.00.

`CC1(N)CCN(c2cnc3c(Sc4cccnc4C(=O)O)n[nH]c3n2)CC1` [Compound 482] had a negative-log IC50 (pIC50) of over 6.00.

Consider `N[C@@H]1COCC12CCN(c1cnc3c(Sc4cccnc4C(F)(F)F)n[nH]c3n1)CC2` [Compound 483, (S)-8-(3-((2-(trifluoromethyl)pyridin-3-yl)thio)-1H-pyrazolo[3,4-b]pyrazin-6-yl)-2-oxa-8-azaspiro[4.5]decan-4-amine], for which the pIC50 is over 6.00.

The compound `Cn1ccc(Sc2n[nH]c3nc(N4CCC(C)(N)CC4)cnc23)c(Cl)c1=O` [Compound 484, 4-((6-(4-amino-4-methylpiperidin-1-yl)-1H-pyrazolo[3,4-b]pyrazin-3-yl)thio)-3-chloro-1-methylpyridin-2(1H)-one] gave a pIC50 of over 6.00.

With `NCC1(F)CCN(c2cnc3c(Sc4ccccc4Cl)n[nH]c3n2)CC1` [Compound 485, (1-(3-((2-chlorophenyl)thio)-1H-pyrazolo[3,4-b]pyrazin-6-yl)-4-fluoropiperidin-4-yl)methanamine], the pIC50 was over 6.00.

The compound `CC1(N)CCN(c2cnc3c(Sc4ccncc4)n[nH]c3n2)CC1` [Compound 486, 4-methyl-1-(3-(pyridin-4-ylthio)-1H-pyrazolo[3,4-b]pyrazin-6-yl)piperidin-4-amine] showed a negative logarithm of the IC50 (pIC50) of over 6.00.

For the compound `CC(=O)N1CCCC(Sc2n[nH]c3nc(N4CCC(C)(N)CC4)cnc23)C1` (centres unmarked) [Compound 488, 1-(3-((6-(4-amino-4-methylpiperidin-1-yl)-1H-pyrazolo[3,4-b]pyrazin-3-yl)thio)piperidin-1-yl)ethan-1-one], the pIC50 was at most 5.00.

Consider `CC1(N)CCN(c2cnc3c(Sc4ccnc(N)c4F)n[nH]c3n2)CC1` [Compound 489, 4-((6-(4-amino-4-methylpiperidin-1-yl)-1H-pyrazolo[3,4-b]pyrazin-3-yl)thio)-3-fluoropyridin-2-amine], for which the pIC50 was over 6.00.

Regarding `CN(c1ccnc(N)c1)c1n[nH]c2nc(N3CCC(C)(N)CC3)cnc12` [Compound 491, N4-[6-(4-amino-4-methyl-1-piperidyl)-1H-pyrazolo[3,4-b]pyrazin-3-yl]-N4-methyl-pyridine-2,4-diamine], the pIC50 is 5.00 to 6.00.

Regarding `CC1(N)CCN(c2cnc3c(SC4CCCNC4)n[nH]c3n2)CC1` (centres unmarked) [Compound 492, 4-methyl-1-(3-(piperidin-3-ylthio)-1H-pyrazolo[3,4-b]pyrazin-6-yl)piperidin-4-amine], the pIC50 is at most 5.00.

As to `CC1(N)CCN(c2cnc3c(Sc4ncnc5ccccc45)n[nH]c3n2)CC1` [Compound 493, 4-methyl-1-(3-(quinazolin-4-ylthio)-1H-pyrazolo[3,4-b]pyrazin-6-yl)piperidin-4-amine], the pIC50 was over 6.00.

`COC(=O)CCc1ncccc1Nc1n[nH]c2nc(N3CCC(C)(N)CC3)cnc12` [Compound 495, methyl 3-[3-[[6-(4-amino-4-methyl-1-piperidyl)-1H-pyrazolo[3,4-b]pyrazin-3-yl]amino]-2-pyridyl]propanoate] showed a pIC50 of 5.00 to 6.00.

For `CC1(N)CCN(c2cnc3c(Sc4cccn5ccnc45)n[nH]c3n2)CC1` [Compound 496, 1-(3-(imidazo[1,2-a]pyridin-8-ylthio)-1H-pyrazolo[3,4-b]pyrazin-6-yl)-4-methylpiperidin-4-amine hydrochloride], the pIC50 was over 6.00.

`CNc1nccc(Sc2n[nH]c3nc(N4CCC(C)(N)CC4)cnc23)c1Cl` [Compound 497, 4-((6-(4-amino-4-methylpiperidin-1-yl)-1H-pyrazolo[3,4-b]pyrazin-3-yl)thio)-3-chloro-N-methylpyridin-2-amine hydrochloride] showed a pIC50 of over 6.00.

Take `CC1(CN)CCN(c2cnc3c(Nc4ccnc(N)c4Cl)n[nH]c3n2)CC1` [Compound 498, N^4-(6-(4-(aminomethyl)-4-methylpiperidin-1-yl)-1H-pyrazolo[3,4-b]pyrazin-3-yl)-3-chloropyridine-2,4-diamine]: the pIC50 was over 6.00.

In the case of `CC1(CN)CCN(c2cnc3c(Nc4ccnc(Cl)c4Cl)n[nH]c3n2)C1` (centres unmarked) [Compound 499, 6-(3-(Aminomethyl)-3-methylpyrrolidin-1-yl)-N-(2,3-dichloropyridin-4-yl)-1H-pyrazolo[3,4-b]pyrazin-3-amine], the negative-log IC50 (pIC50) was over 6.00.

As to `CC1(CN)CCN(c2cnc3c(Nc4ccnc(Cl)c4Cl)n[nH]c3n2)CC1` [Compound 500, 6-(4-(Aminomethyl)-4-methylpiperidin-1-yl)-N-(2,3-dichloropyridin-4-yl)-1H-pyrazolo[3,4-b]pyrazin-3-amine hydrochloride], the pIC50 was over 6.00.

Take `Cn1nc(Oc2ccnc(Cl)c2Cl)c2ncc(N3CCC(C)(CN)CC3)nc21` [Compound 501, (1-(3-((2,3-dichloropyridin-4-yl)oxy)-1-methyl-1H-pyrazolo[3,4-b]pyrazin-6-yl)-4-methylpiperidin-4-yl)methanamine]: the pIC50 is at most 5.00.

`CC1(N)CCN(c2cnc3c(Oc4ncccc4Cl)n[nH]c3n2)CC1` [Compound 502, 1-(3-((3-chloropyridin-2-yl)oxy)-1H-pyrazolo[3,4-b]pyrazin-6-yl)-4-methylpiperidin-4-amine dihydrochloride] had a pIC50 of over 6.00.

Compound `Cc1nccc(Oc2n[nH]c3nc(N4CCC(C)(CN)CC4)cnc23)c1Cl` [Compound 504, (1-(3-((3-chloro-2-methylpyridin-4-yl)oxy)-1H-pyrazolo[3,4-b]pyrazin-6-yl)-4-methylpiperidin-4-yl)methanamine] had a pIC50 of over 6.00.

`CC1(CN)CCN(c2cnc3c(Oc4ccc5[nH]ccc5c4)n[nH]c3n2)CC1` [Compound 505, (1-(3-((1H-indol-5-yl)oxy)-1H-pyrazolo[3,4-b]pyrazin-6-yl)-4-methylpiperidin-4-yl)methanamine] showed a pIC50 of 5.00 to 6.00.

Compound `Cn1cc(-c2nccc(Oc3n[nH]c4nc(N5CCC(C)(CN)CC5)cnc34)c2Cl)cn1` [Compound 506, (1-(3-((3-chloro-2-(1-methyl-1H-pyrazol-4-yl)pyridin-4-yl)oxy)-1H-pyrazolo[3,4-b]pyrazin-6-yl)-4-methylpiperidin-4-yl)methanamine] gave a negative-log IC50 (pIC50) of over 6.00.

`CC1(N)CCN(c2cnc3c(Oc4cnccc4N)n[nH]c3n2)CC1` [Compound 507, 3-((6-(4-Amino-4-methylpiperidin-1-yl)-1H-pyrazolo[3,4-b]pyrazin-3-yl)oxy)pyridin-4-amine hydrochloride] showed a pIC50 of at most 5.00.

`CC1(N)CCN(c2cnc3c(Oc4cccnc4N)n[nH]c3n2)CC1` [Compound 508, 3-((6-(4-Amino-4-methylpiperidin-1-yl)-1H-pyrazolo[3,4-b]pyrazin-3-yl)oxy)pyridin-2-amine hydrochloride] gave a pIC50 of 5.00 to 6.00.
